The values below come from patent US6184206A, “Integrin ligand dissociators” (The Burnham Institute, priority 1998, dated 2001).

Test [1] addresses T1, purified IIb-IIIa (Homo sapiens, UniProt P05106+P08514). Briefly: Competition binding to purified IIb-IIIa immobilized in microtiter plates. Conditions: 125I-Fab-9 challenged with unlabeled fibrinogen (FIG. 1B). The procedure:
FIGS. 1A and 1B. Fibrinogen and Fab-9 bind distinct sites on IIb-IIIa. Studies were conducted with purified IIb-IIIa to determine whether Fab-9 (an RGD mimic) and fibrinogen bind to the same site on the integrin. IIb-IIIa was immobilized in microtiter plates and was allowed to bind either ^125 I-fibrinogen (FIG. 1A) or to ^125 I-Fab-9 (FIG. 1B). The binding of ^125 I-fibrinogen was challenged with unlabeled Fab-9. Similarly, the binding of ^125 I-Fab-9 was challenged with unlabeled fibrinogen.
To determine if fibrinogen and Fab-9 actually bind the same site on IIb-IIIa, a series of competition binding studies were carried out. The ability of the two ligands to compete for binding to IIB-IIIa was measured. Fab-9 blocked the binding of fibrinogen to IIB-IIIa (FIG. 1A). […] These sites are designated as Site I, which binds to Fab-9 and Site II, which interacts with fibrinogen (FIG. 2).

The target in test [2] is T1, purified IIb-IIIa. The test is described as follows: Surface Plasmon Resonance, real-time dissociation of ligands from IIb-IIIa. The format is binding. Conditions: fibrinogen immobilized on sensor chip, without 52012 (FIG. 4B). The procedure:
FIGS. 4A and 4B. Measuring the ability of 52012 to dissociate fibrinogen and Fab-9 from IIb-IIIa in real time. Studies were performed with Surface Plasmon Resonance to examine the ability of 52012 to induce the dissociation of ligands from IIb-IIIa. Fab-9 (FIG. 4A) or fibrinogen (FIG. 4B) were immobilized on the sensor chip and then allowed to bind to purified IIb-IIIa. At a specific time, 52012 was introduced by injection into the flow cell.
In one embodiment, ILDs can be identified by the ability to increase the rate of dissociation between an integrin and its natural ligand, or a known mimic of its natural ligand, with Surface Plasmon Resonance (SPR), for example, using the BIACORE Surface Plasmon Resonance™ instrument. SPR is a technique that measures ligand association and dissociation in "real time." To screen for an ILD using plasmon resonance, the following steps would be taken:
It is important to note that the configuration of the assay could take several different forms. For example, rather than immobilizing the integrin on the sensor chip, one could immobilize the ligand. In such case, the integrin would be allowed to bind the immobilized ligand prior to measuring dissociation rates.
To verify the effect of RGD-type ligands on the dissociation of fibrinogen from IIB-IIIa, dissociation rates were measured in real time using Surface Plasmon Resonance (SPR).

T1 sequence (P08514 32-887 limits assumed): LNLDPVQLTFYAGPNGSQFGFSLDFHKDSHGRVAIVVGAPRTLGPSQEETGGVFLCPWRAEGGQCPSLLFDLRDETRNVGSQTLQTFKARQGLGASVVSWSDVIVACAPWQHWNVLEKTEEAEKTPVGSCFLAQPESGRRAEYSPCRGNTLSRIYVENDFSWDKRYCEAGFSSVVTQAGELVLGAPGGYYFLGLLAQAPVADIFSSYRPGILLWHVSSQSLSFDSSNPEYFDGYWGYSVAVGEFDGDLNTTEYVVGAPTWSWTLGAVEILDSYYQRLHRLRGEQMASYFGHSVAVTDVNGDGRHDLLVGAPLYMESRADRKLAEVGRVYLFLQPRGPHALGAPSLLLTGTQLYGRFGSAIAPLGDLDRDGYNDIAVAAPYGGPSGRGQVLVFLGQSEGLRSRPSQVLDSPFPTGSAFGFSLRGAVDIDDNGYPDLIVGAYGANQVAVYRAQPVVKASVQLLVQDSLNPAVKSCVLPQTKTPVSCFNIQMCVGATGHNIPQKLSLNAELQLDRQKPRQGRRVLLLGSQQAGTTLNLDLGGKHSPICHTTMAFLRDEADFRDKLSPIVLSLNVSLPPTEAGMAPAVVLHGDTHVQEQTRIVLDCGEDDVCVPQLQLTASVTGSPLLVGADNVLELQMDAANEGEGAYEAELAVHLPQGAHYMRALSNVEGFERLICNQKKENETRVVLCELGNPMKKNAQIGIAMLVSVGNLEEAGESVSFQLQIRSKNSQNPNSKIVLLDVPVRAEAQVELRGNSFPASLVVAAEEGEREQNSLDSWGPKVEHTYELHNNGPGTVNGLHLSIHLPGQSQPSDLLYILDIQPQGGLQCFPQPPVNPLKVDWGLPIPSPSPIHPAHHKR
T1 sequence (P08514 891-1039 limits assumed): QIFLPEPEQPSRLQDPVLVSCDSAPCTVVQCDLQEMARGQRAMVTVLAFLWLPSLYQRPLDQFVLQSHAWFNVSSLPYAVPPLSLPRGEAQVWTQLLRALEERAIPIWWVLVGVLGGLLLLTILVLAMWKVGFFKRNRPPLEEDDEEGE
T1 sequence (P05106 27-788): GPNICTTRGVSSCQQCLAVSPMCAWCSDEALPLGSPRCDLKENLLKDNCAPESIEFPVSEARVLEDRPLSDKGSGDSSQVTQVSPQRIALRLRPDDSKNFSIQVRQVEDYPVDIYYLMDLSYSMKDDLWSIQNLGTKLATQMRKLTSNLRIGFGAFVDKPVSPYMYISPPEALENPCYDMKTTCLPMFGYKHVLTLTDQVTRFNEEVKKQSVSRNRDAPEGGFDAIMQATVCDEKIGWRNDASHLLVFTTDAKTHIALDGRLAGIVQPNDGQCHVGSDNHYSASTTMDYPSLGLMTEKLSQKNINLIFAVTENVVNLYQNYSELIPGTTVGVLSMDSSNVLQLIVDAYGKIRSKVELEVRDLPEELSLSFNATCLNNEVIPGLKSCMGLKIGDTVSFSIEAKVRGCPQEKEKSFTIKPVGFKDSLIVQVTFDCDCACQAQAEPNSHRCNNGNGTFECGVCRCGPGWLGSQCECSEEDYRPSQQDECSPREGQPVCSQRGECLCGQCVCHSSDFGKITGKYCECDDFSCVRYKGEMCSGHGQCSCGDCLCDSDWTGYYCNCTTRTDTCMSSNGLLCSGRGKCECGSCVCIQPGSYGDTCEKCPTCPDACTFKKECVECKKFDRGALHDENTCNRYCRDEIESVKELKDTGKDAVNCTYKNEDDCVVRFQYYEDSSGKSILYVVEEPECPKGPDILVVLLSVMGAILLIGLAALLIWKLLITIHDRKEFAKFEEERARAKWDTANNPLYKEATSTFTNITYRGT

On to fibrinogen, for which the “blocking of binding of 125I-Fab-9 to IIb-IIIa” value in test [1] was “failed to block”. In addition, the “off-rate of fibrinogen from IIb-IIIa before 52012” value in test [2] was determined as 6e-05 s⁻¹.
